From PubChem BioAssay (NCI)
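Assay format: 96-well plates, 48-hour exposure. The concentration for full growth arrest is given as TGI.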

Assays:
Test in all cases: NCI anticancer screen, dose series, 48 h
[1] = tested on: MCF7 breast
[2] = tested on: NCI/ADR-RES ovarian
[3] = tested on: HT29 colon
[4] = tested on: MDA-MB-231 breast
[5] = tested on: SF-268 CNS
[6] = tested on: UACC-257 melanoma
[7] = tested on: NCI-H522 lung
[8] = tested on: TK-10 renal
[9] = tested on: LOX IMVI melanoma
[10] = tested on: PC-3 prostate
[11] = tested on: HS 578T breast
[12] = tested on: SK-MEL-5 melanoma
[13] = tested on: UACC-62 melanoma
[14] = tested on: HOP-62 NSCLC
[15] = tested on: 786-0 renal
[16] = tested on: HCC-2998 colon
[17] = tested on: NCI-H460 lung
[18] = tested on: NCI-H23 lung
[19] = tested on: U251 CNS
[20] = tested on: MDA-MB-435
[21] = tested on: SF-539 CNS
[22] = tested on: MALME-3M melanoma
[23] = tested on: HCT-116 colon
[24] = tested on: SR leukemia
[25] = tested on: KM12 colon
[26] = tested on: RXF 393 renal
[27] = tested on: HOP-92 NSCLC
[28] = tested on: SF-295 CNS
[29] = tested on: OVCAR-8 ovarian
[30] = tested on: CAKI-1 renal
[31] = tested on: SN12C renal
[32] = tested on: IGROV1 ovarian
[33] = tested on: MDA-N
[34] = tested on: SNB-75 CNS
[35] = tested on: SK-OV-3 ovarian
[36] = tested on: SK-MEL-2 melanoma
[37] = tested on: SW-620 colon
[38] = tested on: EKVX NSCLC
[39] = tested on: A549 NSCLC
[40] = tested on: A498 renal
[41] = tested on: OVCAR-4 ovarian
[42] = tested on: NCI-H226 lung
[43] = tested on: OVCAR-3 ovarian
[44] = tested on: UO-31 renal
[45] = tested on: K-562 leukemia
[46] = tested on: CCRF-CEM leukemia
[47] = tested on: SNB-19 CNS
[48] = tested on: OVCAR-5 ovarian
[49] = tested on: MOLT-4 leukemia
[50] = tested on: SK-MEL-28 melanoma
[51] = tested on: COLO 205 colon
[52] = tested on: ACHN renal
[53] = tested on: HL-60(TB) leukemia
[54] = tested on: T-47D breast
[55] = tested on: RPMI-8226 leukemia
[56] = tested on: M14 melanoma
[57] = tested on: HCT-15 colon

CC(C)CC(NC(=O)C(Cc1ccccc1)NC(=O)[C@H]1CC[C@H](NC(=O)C(Cc2ccc(OC(C)(C)C)cc2)NC(=O)OC(C)(C)C)C1)C(N)=O (some centres not stated)
TGI [1]: 31.9 µM
TGI [2]: > 100 µM
TGI [3]: 46.2 µM
TGI [4]: 97 µM
TGI [5]: > 100 µM
TGI [6]: 37 µM
TGI [7]: 33.7 µM
TGI [8]: 86.9 µM
TGI [9]: 35.1 µM
TGI [10]: 59.3 µM
TGI [11]: 35.8 µM
TGI [12]: 20.1 µM
TGI [13]: 41.8 µM
TGI [14]: > 100 µM
TGI [15]: > 100 µM
TGI [16]: 27.5 µM
TGI [17]: 39.7 µM
TGI [18]: 31.4 µM
TGI [19]: 28.6 µM
TGI [20]: 41.2 µM
TGI [21]: 42.6 µM
TGI [22]: 61 µM
TGI [23]: 28.2 µM
TGI [24]: > 100 µM
TGI [25]: 44.1 µM
TGI [26]: > 100 µM
TGI [27]: 59 µM
TGI [28]: 83.5 µM
TGI [29]: 36 µM
TGI [30]: > 100 µM
TGI [31]: 31.5 µM
TGI [32]: 77.8 µM
TGI [33]: 41.1 µM
TGI [34]: > 100 µM
TGI [35]: > 100 µM
TGI [36]: 34.8 µM
TGI [37]: 94.3 µM
TGI [38]: > 100 µM
TGI [39]: > 100 µM
TGI [40]: > 100 µM
TGI [41]: > 100 µM
TGI [42]: 45.2 µM
TGI [43]: 58 µM
TGI [44]: > 100 µM
TGI [45]: 47.9 µM
TGI [46]: 43.3 µM
TGI [47]: 53.9 µM
TGI [48]: > 100 µM
TGI [49]: 53.6 µM
TGI [50]: 51.5 µM
TGI [51]: 35.8 µM
TGI [52]: > 100 µM
TGI [53]: > 100 µM
TGI [54]: 46.9 µM
TGI [55]: > 100 µM
TGI [56]: 33.7 µM
TGI [57]: 48.9 µM
